Experimental findings from ChEMBL document CHEMBL5291721, “A preclinical secondary pharmacology resource illuminates target-adverse drug reaction associations of marketed drugs” (Nat Commun, 2023) are described below.

Assay [1] deals with T1, Alpha-2A adrenergic receptor (Homo sapiens, UniProt P08913).
T1 sequence (P08913 whole entry): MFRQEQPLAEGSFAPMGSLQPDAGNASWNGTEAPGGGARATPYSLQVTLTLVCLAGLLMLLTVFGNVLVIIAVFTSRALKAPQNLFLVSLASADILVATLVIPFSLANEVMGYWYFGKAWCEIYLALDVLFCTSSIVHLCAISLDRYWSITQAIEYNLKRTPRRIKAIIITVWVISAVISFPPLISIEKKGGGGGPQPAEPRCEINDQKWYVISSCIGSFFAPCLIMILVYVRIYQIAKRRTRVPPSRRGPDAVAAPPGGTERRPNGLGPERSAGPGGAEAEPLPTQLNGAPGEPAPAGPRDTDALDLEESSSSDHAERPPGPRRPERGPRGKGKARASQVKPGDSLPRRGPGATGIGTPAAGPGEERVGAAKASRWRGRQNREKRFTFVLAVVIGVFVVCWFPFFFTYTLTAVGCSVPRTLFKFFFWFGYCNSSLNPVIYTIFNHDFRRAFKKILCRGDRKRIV

Assay [2] has as its target T2, Peroxisome proliferator-activated receptor gamma (Homo sapiens, UniProt P37231).
T2 sequence (P37231 whole entry): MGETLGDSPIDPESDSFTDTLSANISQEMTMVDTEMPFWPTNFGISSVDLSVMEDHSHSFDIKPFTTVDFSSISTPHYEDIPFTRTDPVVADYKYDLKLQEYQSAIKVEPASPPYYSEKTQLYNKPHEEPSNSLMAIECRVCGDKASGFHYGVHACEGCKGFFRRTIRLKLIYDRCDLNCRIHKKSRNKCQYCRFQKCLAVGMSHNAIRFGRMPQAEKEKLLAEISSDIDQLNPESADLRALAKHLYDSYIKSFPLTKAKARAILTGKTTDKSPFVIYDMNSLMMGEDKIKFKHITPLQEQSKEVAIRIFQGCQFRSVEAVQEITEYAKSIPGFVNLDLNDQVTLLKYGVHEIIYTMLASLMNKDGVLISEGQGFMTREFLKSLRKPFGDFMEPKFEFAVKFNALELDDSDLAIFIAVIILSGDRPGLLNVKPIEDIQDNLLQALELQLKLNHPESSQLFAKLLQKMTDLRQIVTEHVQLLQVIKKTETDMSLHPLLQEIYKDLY
The class given is functional.

Assay [3] deals with Gamma-aminobutyric acid receptor subunit alpha-1/alpha-2/beta-2/gamma-2 (Homo sapiens, UniProt P14867+P18507+P47869+P47870). In kind it is functional, cell-based.
Assay [4] concerns the target Sodium channel protein type 5 subunit alpha (Homo sapiens, UniProt Q14524). The class given is functional, cell-based.
In assay [5] the target is T3, Corticotropin-releasing factor receptor 1 (Homo sapiens, UniProt P34998).
T3 sequence (P34998 whole entry): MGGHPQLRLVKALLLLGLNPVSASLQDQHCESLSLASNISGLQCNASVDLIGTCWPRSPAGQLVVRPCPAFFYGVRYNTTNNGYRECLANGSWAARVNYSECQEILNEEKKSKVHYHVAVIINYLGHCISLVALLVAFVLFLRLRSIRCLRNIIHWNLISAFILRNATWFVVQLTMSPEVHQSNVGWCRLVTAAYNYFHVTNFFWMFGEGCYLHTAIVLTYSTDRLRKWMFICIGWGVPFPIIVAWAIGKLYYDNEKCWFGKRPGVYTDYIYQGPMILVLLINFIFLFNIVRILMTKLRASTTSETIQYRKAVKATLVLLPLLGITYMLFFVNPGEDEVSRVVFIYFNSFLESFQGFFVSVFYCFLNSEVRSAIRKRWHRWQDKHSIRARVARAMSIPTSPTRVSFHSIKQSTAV

Assay [6] has as its target T4, Corticotropin-releasing factor receptor 2 (Homo sapiens, UniProt Q13324).
T4 sequence (Q13324 whole entry): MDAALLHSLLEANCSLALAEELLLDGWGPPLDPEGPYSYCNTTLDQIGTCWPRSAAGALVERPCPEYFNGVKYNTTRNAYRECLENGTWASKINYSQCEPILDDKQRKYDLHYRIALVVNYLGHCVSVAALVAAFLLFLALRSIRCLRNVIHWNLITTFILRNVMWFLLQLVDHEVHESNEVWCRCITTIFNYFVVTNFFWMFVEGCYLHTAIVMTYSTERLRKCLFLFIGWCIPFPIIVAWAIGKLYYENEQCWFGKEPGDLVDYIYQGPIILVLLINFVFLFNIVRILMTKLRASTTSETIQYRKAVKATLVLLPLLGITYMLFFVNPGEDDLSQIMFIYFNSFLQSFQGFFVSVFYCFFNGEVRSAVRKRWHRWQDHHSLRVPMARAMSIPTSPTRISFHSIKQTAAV

In the next assay the target is T5, D(4) dopamine receptor (Homo sapiens, UniProt P21917).
T5 sequence (P21917 whole entry): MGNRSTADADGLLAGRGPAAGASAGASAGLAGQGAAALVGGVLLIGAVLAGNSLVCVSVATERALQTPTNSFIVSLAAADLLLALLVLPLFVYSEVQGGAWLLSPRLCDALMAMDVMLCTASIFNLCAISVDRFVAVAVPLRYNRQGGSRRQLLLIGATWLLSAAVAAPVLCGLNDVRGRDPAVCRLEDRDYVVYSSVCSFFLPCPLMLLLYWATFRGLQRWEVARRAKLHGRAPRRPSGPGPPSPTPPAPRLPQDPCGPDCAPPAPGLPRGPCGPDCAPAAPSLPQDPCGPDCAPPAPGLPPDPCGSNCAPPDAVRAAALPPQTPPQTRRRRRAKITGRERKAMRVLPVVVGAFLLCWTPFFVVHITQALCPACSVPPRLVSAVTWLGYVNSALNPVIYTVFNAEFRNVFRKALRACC

Another assay addresses Histamine H2 receptor (Homo sapiens, UniProt P25021).
The target in assay [7] is 5-hydroxytryptamine receptor 6 (Homo sapiens, UniProt P50406).
Chain of 5-hydroxytryptamine receptor 6 (P50406 whole entry): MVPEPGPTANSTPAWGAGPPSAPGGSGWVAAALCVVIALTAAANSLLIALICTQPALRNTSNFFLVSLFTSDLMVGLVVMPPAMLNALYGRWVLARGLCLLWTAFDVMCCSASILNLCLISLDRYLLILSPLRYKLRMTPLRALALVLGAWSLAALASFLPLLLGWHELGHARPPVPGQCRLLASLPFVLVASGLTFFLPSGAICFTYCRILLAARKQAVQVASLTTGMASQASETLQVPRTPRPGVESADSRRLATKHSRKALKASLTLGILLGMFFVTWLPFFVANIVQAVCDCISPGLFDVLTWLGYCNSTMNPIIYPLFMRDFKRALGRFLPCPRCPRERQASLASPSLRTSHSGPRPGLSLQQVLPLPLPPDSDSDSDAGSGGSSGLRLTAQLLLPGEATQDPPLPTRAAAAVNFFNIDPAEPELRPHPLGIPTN
Assay [8] concerns the target 5-hydroxytryptamine receptor 7 (Homo sapiens, UniProt P34969).
The target in assay [9] is Neurotensin receptor type 1 (Homo sapiens, UniProt P30989).
Chain of Neurotensin receptor type 1 (P30989 whole entry): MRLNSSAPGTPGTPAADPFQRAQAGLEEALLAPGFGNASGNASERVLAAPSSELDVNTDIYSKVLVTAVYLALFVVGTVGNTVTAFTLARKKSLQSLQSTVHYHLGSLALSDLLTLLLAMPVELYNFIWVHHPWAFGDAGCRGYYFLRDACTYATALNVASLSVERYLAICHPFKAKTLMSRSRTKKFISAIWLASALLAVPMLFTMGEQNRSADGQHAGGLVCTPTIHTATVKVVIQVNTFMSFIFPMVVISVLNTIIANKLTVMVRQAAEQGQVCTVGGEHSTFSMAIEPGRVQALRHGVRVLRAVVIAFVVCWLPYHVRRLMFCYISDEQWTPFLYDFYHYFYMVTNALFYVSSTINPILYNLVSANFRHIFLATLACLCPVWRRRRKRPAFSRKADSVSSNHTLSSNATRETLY
Assay [10] deals with Gamma-aminobutyric acid type B receptor subunit 1 (Homo sapiens, UniProt Q9UBS5).
Chain of Gamma-aminobutyric acid type B receptor subunit 1 (Q9UBS5 whole entry): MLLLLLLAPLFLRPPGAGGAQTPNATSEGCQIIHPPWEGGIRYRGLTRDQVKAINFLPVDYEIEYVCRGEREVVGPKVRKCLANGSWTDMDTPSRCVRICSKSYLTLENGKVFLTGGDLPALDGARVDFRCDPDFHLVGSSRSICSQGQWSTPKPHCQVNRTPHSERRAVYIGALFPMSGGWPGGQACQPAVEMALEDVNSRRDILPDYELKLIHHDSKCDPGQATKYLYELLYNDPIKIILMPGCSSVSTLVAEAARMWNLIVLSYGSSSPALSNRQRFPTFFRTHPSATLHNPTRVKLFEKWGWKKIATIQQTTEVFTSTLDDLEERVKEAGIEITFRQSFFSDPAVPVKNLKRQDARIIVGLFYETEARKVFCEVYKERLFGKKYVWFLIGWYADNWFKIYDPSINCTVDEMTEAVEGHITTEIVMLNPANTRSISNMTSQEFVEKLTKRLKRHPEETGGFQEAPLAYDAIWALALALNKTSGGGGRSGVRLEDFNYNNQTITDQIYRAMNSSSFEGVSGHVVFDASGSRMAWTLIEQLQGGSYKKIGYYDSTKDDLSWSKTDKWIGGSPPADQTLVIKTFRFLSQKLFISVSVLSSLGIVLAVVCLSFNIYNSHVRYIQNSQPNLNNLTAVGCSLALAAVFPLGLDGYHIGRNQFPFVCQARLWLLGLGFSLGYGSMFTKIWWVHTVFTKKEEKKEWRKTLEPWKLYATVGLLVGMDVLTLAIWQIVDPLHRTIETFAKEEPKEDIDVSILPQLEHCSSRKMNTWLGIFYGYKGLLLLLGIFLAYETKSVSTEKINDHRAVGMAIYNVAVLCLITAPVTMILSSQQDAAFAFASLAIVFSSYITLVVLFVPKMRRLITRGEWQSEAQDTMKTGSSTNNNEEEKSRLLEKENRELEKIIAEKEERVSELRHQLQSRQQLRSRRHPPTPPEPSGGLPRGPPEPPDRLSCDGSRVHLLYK
Further: assay procedure not described here.

Chain of Sodium channel protein type 5 subunit alpha (Q14524 whole entry): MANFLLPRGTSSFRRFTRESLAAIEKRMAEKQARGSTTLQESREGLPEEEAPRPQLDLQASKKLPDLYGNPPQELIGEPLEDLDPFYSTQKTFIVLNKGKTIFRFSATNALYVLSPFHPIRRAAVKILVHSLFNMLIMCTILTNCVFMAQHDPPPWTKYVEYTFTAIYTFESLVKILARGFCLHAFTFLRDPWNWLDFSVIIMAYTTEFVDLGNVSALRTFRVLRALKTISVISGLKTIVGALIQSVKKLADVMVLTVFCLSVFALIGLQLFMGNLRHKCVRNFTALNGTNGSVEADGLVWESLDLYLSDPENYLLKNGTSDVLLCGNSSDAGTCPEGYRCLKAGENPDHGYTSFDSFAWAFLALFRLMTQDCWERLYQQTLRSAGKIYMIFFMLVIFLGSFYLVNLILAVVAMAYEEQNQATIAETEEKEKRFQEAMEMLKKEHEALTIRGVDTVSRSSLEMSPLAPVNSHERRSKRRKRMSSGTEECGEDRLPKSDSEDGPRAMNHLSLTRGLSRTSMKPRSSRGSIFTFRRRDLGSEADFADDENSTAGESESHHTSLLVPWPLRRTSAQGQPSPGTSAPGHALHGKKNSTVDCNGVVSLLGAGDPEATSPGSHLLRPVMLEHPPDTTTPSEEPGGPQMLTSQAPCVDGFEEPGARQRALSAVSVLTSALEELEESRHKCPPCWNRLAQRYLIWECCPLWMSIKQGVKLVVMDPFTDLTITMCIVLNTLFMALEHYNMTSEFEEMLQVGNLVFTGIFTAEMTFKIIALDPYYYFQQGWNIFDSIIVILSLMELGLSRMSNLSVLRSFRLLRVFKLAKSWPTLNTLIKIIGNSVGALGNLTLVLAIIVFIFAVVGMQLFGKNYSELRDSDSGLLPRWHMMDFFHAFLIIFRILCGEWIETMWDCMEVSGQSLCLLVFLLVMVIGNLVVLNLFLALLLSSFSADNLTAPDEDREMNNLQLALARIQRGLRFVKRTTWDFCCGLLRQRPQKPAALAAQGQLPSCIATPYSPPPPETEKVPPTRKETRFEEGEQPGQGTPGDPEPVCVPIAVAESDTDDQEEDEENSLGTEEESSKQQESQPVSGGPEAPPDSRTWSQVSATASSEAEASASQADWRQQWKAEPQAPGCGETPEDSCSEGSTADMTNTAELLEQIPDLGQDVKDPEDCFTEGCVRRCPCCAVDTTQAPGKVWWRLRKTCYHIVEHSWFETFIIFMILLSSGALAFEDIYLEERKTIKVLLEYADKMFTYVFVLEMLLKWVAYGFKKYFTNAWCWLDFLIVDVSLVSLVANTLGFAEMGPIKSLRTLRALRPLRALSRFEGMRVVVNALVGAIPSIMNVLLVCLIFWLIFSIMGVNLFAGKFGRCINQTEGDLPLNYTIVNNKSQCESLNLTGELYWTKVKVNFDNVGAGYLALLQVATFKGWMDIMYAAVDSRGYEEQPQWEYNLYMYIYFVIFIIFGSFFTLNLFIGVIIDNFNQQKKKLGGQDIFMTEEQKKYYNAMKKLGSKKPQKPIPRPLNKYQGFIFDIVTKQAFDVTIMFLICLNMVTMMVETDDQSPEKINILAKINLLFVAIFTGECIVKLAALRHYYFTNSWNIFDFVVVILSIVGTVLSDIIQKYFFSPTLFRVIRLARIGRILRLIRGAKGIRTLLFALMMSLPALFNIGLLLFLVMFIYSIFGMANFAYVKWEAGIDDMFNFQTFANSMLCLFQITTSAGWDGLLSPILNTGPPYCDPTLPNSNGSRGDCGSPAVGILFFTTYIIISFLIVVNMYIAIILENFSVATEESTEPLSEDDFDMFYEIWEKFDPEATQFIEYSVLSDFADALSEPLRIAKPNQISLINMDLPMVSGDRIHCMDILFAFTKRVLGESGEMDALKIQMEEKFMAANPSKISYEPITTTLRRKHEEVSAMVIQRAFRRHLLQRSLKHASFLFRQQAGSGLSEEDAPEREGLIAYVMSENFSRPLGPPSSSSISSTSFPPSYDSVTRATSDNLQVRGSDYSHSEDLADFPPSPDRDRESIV
Chain of 5-hydroxytryptamine receptor 7 (P34969 whole entry): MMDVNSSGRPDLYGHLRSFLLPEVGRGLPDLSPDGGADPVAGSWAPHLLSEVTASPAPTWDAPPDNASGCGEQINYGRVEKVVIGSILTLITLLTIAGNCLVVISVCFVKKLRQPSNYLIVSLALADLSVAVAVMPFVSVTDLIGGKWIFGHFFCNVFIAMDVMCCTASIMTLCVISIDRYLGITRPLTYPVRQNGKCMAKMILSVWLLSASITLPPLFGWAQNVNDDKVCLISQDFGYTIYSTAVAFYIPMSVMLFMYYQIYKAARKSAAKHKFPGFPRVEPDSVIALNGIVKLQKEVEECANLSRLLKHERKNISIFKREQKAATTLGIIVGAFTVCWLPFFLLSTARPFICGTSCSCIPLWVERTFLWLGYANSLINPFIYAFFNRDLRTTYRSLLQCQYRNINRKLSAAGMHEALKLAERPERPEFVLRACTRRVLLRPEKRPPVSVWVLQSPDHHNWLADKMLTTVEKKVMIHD
Chain of Histamine H2 receptor (P25021 whole entry): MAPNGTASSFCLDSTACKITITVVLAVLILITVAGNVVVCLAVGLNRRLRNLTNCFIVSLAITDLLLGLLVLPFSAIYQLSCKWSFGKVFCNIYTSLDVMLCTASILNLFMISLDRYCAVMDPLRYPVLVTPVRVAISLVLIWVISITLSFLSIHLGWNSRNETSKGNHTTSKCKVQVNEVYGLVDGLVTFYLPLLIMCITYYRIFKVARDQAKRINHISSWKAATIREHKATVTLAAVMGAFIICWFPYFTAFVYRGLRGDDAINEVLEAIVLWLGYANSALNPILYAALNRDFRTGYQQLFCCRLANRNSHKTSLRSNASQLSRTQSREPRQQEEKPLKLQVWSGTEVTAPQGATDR

The compound `CCN1CCC[C@H]1CNC(=O)c1cc(S(N)(=O)=O)ccc1OC` [LEVOSULPIRIDE] registered an AC50 in assay [1] of over 10 µM.
On to `CCN(CC)CCOC(=O)c1ccc(N)cc1` [PROCAINE], for which the AC50 in [1] was over 10 µM.
Turning to `CCCOc1ccc(C(=O)OCCN(CC)CC)cc1N` [PROPARACAINE], in [2], the AC50 was over 30 µM.
With `Nc1nc2ccc(OC(F)(F)F)cc2s1` [RILUZOLE], the AC50 in [3] and in assay [2] was over 30 µM throughout.
In the case of `O=C1NCCN1CCN1CCC(c2cn(-c3ccc(F)cc3)c3ccc(Cl)cc23)CC1` [SERTINDOLE], half-maximal activity in assay [4] (AC50) was put at 21 µM. That is a double-digit micromolar value.
For `[H]/N=C(/N)c1ccc(NCc2nc3cc(C(=O)N(CCC(=O)O)c4ccccn4)ccc3n2C)cc1` [DABIGATRAN], the AC50 in assay [3], in [2] and in assay [4] was over 30 µM each time.
As to `CCCCCOC(=O)Nc1nc(=O)n([C@@H]2O[C@H](C)[C@@H](O)[C@H]2O)cc1F` [CAPECITABINE], the AC50 in assay [3] and in assay [2] was over 30 µM in each case.
In [2], `Cc1cccc(C)c1NC(=O)C1CCCCN1C` (stereo unspecified) [MEPIVACAINE] yielded an AC50 of over 30 µM.
On to `CN1CC[C@]23CCCC[C@H]2[C@H]1Cc1ccc(O)cc13` [LEVORPHANOL], for which the AC50 in assay [1] was determined as 19 µM.
Turning to `CC(Cc1ccccc1)NCCC(c1ccccc1)c1ccccc1` (stereo unspecified) [PRENYLAMINE], the AC50 in assay [4] came out at 7.1 µM.
As for `CN1CCN(C(=O)OC2c3nccnc3C(=O)N2c2ccc(Cl)cn2)CC1` (stereo unspecified) [ZOPICLONE], the AC50 in [5] is over 30 µM; in assay [6], over 30 µM; on D(4) dopamine receptor it was over 10 µM; at Histamine H2 receptor it was over 10 µM; in assay [7], over 10 µM; in assay [8] it was over 10 µM. Further, the AC50 in assay [9] was over 30 µM; in [2], over 30 µM; in [1], over 10 µM.
Regarding `COc1ccc2cccc(CCNC(C)=O)c2c1` [AGOMELATINE], the AC50 in [5] is over 30 µM; in [6], over 30 µM; at D(4) dopamine receptor, over 10 µM; on Histamine H2 receptor it was over 10 µM; in assay [9], over 30 µM; in assay [1] it was over 10 µM.
On to `CC(C)c1c(C(=O)Nc2ccccc2)c(-c2ccccc2)c(-c2ccc(F)cc2)n1CC[C@@H](O)C[C@@H](O)CC(=O)O` [ATORVASTATIN], for which the AC50 in [5] was over 30 µM; in assay [6], over 30 µM; in assay [10] it was over 10 µM; at Histamine H2 receptor, over 10 µM; in assay [9] it was over 30 µM; in [1], over 10 µM.
With `CN(C)C(=O)OC1N=C(c2ccccc2)c2cc(Cl)ccc2N(C)C1=O` (stereo unspecified) [CAMAZEPAM], the AC50 in assay [5] was over 30 µM; in [6], over 30 µM; on D(4) dopamine receptor, over 10 µM; in assay [10] it was over 10 µM; at Histamine H2 receptor, over 10 µM; in assay [7] it was over 10 µM. Besides, the AC50 in assay [8] is over 10 µM; in assay [9], over 30 µM; in assay [1], over 10 µM.
For the compound `Cc1cc(-c2ccccc2)nnc1NCCN1CCOCC1` [MINAPRINE], the AC50 in [5] was over 30 µM; in assay [6], over 30 µM; on D(4) dopamine receptor it was over 10 µM; at Histamine H2 receptor it was over 10 µM; in assay [9] it was over 30 µM; in assay [1] it was over 10 µM.
As for `Cc1c(C(=O)Nc2ccc(N3C[C@@H](C)O[C@@H](C)C3)nc2)cccc1-c1ccc(OC(F)(F)F)cc1` [SONIDEGIB], the AC50 in assay [5] is over 30 µM; in assay [6], over 30 µM; at D(4) dopamine receptor, over 10 µM; on Histamine H2 receptor it was over 10 µM; in assay [9], over 30 µM; in [1] it was over 10 µM.
For the compound `C1COC(NC(C2CC2)C2CC2)=N1` [RILMENIDINE], the AC50 in assay [1] came out at 3.49 µM.
`COC(=O)C1=C(C)NC(C)=C(C(=O)OC(C)C)C1c1cccc2nonc12` (stereo unspecified) [ISRADIPINE] gave an AC50 in [4] of 2.98 µM.
`NC(=O)C[S+]([O-])C(c1ccccc1)c1ccccc1` (stereo unspecified) [MODAFINIL]: the AC50 in [5] was over 30 µM; in assay [6], over 30 µM; at D(4) dopamine receptor, over 10 µM; in assay [10], over 10 µM; on Histamine H2 receptor it was over 10 µM; in [7], over 10 µM. Further, the AC50 in assay [8] is over 10 µM; in assay [9], over 30 µM; in [1], over 10 µM.
On to `CCCCCN(C)CCC(O)(P(=O)(O)O)P(=O)(O)O` [IBANDRONIC ACID], for which the AC50 was over 30 µM in assay [5]; over 30 µM in [6]; over 10 µM on D(4) dopamine receptor; over 10 µM on Histamine H2 receptor; over 10 µM in assay [7]; over 10 µM in assay [8]. Further, the figures for the AC50 in assay [9] and in assay [1] were over 30 µM and over 10 µM, respectively.
For `CCCCOc1cc(C(=O)NCCN(CC)CC)c2ccccc2n1` [DIBUCAINE], the AC50 in assay [4] came out at 1.8 µM.
Turning to `CCNC(C)Cc1cccc(C(F)(F)F)c1` (stereo unspecified) [FENFLURAMINE], the AC50 in [5] is over 30 µM; in assay [6], over 30 µM; in [10], over 10 µM; in [9], over 30 µM.
With `CN1CCc2cccc3c2[C@H]1Cc1ccc(O)c(O)c1-3` [APOMORPHINE], the AC50 is over 30 µM in assay [5]; over 30 µM in assay [6]; over 10 µM on Histamine H2 receptor; over 30 µM in assay [9]; 2.37 µM in [1].
As to `CC(C)(Oc1ccc(C2CC2(Cl)Cl)cc1)C(=O)O` (stereo unspecified) [CIPROFIBRATE], the AC50 in assay [2] was over 30 µM.
As for `O=C(O)CCCc1ccccc1` [PHENYLBUTANOIC ACID], the AC50 in assay [5] was over 30 µM; in assay [6] it was over 30 µM; at D(4) dopamine receptor, over 10 µM; in [10], over 10 µM; in assay [7] it was over 10 µM; in [8], over 10 µM. For the same compound, the AC50 in assay [9] was over 30 µM; in assay [1], over 10 µM.
With `CN[C@@H](C)[C@H](O)c1ccccc1` [EPHEDRINE], the AC50 in [5] was over 30 µM; in assay [6], over 30 µM; at D(4) dopamine receptor, over 10 µM; on Histamine H2 receptor it was over 10 µM; in assay [9] it was over 30 µM; in assay [4], over 30 µM. The compound further displayed an AC50 in assay [1] of over 10 µM.
